As a reminder, the IC50 is the midpoint of a concentration-inhibition curve.

From ChEMBL document CHEMBL3351286, “Strategies to inhibit tumor associated integrin receptors: rationale for dual and multi-antagonists” (J Med Chem, 2014) come the findings set out here.

In experiment [1] the target is T1, Integrin alpha-V/beta-3 (Homo sapiens, UniProt P05106+P06756). As to the kind of experiment: Antagonist activity at alphavbeta3 integrin receptor (unknown origin) by cell-free ELISA. It is filed as protein-complex assay. (In general: In an ELISA, binding on a coated surface is turned into a signal by an enzyme label.)
T1 sequence (P05106 27-788 limits assumed): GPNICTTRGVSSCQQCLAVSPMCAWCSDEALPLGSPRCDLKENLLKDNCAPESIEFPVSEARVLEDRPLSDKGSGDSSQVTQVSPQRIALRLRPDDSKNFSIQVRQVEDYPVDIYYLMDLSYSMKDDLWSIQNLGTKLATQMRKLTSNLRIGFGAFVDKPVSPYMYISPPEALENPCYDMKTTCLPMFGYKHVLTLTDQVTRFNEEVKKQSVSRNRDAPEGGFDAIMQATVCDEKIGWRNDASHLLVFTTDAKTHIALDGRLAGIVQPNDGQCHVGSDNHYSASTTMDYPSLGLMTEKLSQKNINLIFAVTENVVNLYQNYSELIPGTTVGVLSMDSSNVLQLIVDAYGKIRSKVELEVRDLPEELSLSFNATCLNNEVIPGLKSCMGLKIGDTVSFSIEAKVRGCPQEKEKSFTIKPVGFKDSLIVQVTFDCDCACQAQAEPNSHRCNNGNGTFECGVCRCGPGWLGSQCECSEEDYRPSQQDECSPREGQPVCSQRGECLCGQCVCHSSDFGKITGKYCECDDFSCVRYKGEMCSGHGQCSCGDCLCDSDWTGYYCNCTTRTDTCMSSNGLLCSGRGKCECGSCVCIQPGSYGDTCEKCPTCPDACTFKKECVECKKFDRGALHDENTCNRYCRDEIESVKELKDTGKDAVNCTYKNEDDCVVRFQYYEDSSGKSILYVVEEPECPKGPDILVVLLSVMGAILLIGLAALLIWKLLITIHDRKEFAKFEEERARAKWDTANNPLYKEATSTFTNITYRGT
T1 sequence (P06756 31-889 limits assumed): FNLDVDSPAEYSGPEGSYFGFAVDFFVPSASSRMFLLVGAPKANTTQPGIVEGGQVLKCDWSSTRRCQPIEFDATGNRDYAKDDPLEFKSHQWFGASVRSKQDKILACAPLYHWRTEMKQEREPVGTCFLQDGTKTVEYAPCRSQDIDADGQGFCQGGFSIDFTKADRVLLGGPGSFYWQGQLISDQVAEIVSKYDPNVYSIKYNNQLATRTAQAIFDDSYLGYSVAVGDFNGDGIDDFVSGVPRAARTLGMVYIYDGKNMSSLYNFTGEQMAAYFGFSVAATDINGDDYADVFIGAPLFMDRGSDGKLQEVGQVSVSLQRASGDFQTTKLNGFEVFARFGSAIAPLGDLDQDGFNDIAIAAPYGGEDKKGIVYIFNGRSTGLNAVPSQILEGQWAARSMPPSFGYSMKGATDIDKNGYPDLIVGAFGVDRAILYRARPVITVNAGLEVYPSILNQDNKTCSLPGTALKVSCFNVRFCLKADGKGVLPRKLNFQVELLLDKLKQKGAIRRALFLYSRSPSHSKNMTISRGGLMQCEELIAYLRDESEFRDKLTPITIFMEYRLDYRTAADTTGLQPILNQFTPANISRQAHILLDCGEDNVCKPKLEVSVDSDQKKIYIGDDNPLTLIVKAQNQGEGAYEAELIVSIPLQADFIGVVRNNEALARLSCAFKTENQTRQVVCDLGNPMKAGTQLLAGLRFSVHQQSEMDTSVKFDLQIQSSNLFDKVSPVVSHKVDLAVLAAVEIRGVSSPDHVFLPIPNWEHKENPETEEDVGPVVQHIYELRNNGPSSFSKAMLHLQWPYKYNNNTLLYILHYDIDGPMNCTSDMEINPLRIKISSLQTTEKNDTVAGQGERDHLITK
T1 sequence (P06756 891-1048 limits assumed): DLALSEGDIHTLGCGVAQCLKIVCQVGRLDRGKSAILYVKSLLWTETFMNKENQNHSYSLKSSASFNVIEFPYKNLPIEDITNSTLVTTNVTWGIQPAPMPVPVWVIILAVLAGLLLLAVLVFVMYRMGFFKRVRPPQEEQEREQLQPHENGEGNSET
The target in experiment [2] is T2, Integrin alpha-V/beta-5 (Homo sapiens, UniProt P06756+P18084). Briefly: Antagonist activity at alphavbeta5 integrin receptor (unknown origin) by cell-free ELISA. Type of experiment: protein-complex assay.
Experiment [3] concerns the target Integrin alpha-IIb/beta-3 (Homo sapiens, UniProt P05106+P08514). As to the kind of experiment: Antagonist activity at alpha2bbeta3 integrin receptor (unknown origin) by cell-free ELISA. It is filed as protein-complex assay.
Experiment [4] concerns the target T1, Integrin alpha-V/beta-3. Briefly: Antagonist activity at alphavbeta3 integrin receptor (unknown origin) by cell-based ELISA.
The target of experiment [5] is T3, Integrin alpha-5/beta-1 (Homo sapiens, UniProt P05556+P08648). As to the kind of experiment: Antagonist activity at alpha5beta1 integrin receptor (unknown origin) by cell-based ELISA.
T3 sequence (P05556 21-798 limits assumed): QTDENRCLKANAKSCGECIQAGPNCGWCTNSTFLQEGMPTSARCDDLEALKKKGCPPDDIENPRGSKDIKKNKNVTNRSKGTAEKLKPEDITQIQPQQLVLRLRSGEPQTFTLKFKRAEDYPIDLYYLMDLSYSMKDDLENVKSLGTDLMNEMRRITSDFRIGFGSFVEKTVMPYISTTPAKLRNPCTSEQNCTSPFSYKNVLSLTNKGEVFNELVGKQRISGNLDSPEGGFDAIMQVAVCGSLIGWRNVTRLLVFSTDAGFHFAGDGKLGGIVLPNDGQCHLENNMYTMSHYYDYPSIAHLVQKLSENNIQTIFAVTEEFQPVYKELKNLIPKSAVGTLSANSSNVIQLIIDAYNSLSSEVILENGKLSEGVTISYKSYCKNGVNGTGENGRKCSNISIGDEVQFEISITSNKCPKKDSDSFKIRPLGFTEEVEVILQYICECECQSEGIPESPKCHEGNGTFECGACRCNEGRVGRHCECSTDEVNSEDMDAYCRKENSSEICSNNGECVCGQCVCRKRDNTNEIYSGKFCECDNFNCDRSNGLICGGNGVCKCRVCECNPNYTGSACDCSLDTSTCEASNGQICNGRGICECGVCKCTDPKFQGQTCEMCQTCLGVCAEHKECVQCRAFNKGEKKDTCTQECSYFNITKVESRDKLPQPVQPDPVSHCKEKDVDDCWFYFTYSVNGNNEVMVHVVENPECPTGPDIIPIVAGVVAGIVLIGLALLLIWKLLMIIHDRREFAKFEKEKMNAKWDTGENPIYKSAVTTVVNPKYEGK
T3 sequence (P08648 42-894 limits assumed): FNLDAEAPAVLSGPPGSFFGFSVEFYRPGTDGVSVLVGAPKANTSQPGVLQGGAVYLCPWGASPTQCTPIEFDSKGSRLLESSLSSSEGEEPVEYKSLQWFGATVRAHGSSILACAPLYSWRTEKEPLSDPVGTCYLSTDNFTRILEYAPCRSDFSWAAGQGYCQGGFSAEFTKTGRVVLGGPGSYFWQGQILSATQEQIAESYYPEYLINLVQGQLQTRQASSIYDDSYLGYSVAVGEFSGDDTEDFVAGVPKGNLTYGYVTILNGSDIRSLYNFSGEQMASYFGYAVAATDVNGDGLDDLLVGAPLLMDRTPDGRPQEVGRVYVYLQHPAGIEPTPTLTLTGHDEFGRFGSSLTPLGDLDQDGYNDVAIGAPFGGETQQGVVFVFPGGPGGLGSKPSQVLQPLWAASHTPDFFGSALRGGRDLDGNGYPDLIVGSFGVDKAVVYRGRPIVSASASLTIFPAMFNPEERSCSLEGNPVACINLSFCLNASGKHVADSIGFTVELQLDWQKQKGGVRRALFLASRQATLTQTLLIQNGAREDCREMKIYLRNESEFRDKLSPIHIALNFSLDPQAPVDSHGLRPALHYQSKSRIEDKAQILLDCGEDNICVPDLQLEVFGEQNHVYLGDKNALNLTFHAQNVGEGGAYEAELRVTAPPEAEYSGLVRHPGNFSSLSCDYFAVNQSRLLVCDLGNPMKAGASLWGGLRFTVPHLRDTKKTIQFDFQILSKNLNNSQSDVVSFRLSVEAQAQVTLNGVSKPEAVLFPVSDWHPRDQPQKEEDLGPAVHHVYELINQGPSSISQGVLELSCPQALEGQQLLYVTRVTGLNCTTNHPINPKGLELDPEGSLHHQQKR
T3 sequence (P08648 895-1049 limits assumed): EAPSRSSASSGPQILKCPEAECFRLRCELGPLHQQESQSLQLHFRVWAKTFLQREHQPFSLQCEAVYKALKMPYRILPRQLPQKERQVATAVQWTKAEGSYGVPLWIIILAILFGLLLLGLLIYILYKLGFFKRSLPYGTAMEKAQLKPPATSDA
The target of experiment [6] is T2, Integrin alpha-V/beta-5. Briefly: Antagonist activity at alphavbeta5 integrin receptor (unknown origin) by cell-based ELISA.
The target in experiment [7] is T3, Integrin alpha-5/beta-1. Briefly: Antagonist activity at alpha5beta1 integrin receptor in K562 cells after 4 hrs using p-nitrophenyl phosphate by colorimetry. Type of experiment: cell-based.
In experiment [8] the target is Integrin alpha-V/beta-6 (Homo sapiens, UniProt P06756+P18564). Briefly: Antagonist activity at alphavbeta6 integrin receptor in human HT29 cells after 4 hrs using p-nitrophenyl phosphate by colorimetry. It is filed as cell-based, HT-29.
The target of experiment [9] is Integrin alpha-V/beta-8 (Homo sapiens, UniProt P06756+P26012). As to the kind of experiment: Antagonist activity at human recombinant alphavbeta8 integrin receptor expressed in HEK293 cells after 4 hrs using p-nitrophenyl phosphate by colorimetry. Type of experiment: cell-based.
The target of experiment [10] is T1, Integrin alpha-V/beta-3. Briefly: Antagonist activity at alphavbeta3 integrin receptor in HEK293 cells after 4 hrs using p-nitrophenyl phosphate by colorimetry. It is filed as cell-based.
The target in experiment [11] is Integrin alpha-V/beta-5 (Homo sapiens) [+]. Briefly: Antagonist activity at alphavbeta5 integrin receptor in HEK293 cells after 4 hrs using p-nitrophenyl phosphate by colorimetry.
In experiment [12] the target is T4, Integrin alpha-V/beta-1 (Homo sapiens, UniProt P05556+P06756). Briefly: Antagonist activity at alphavbeta1 integrin receptor in HEK293 cells after 4 hrs using p-nitrophenyl phosphate by colorimetry. Type of experiment: cell-based.
T4 sequence (P05556 21-798 limits assumed): as the sequence (P05556 21-798 limits assumed) above
T4 sequence (P06756 31-889 limits assumed): as the sequence (P06756 31-889 limits assumed) above
T4 sequence (P06756 891-1048 limits assumed): as the sequence (P06756 891-1048 limits assumed) above
Experiment [13] concerns the target T4, Integrin alpha-V/beta-1. Briefly: Antagonist activity at alphavbeta1 integrin receptor (unknown origin) by cell-based ELISA.
Experiment [14] addresses T3, Integrin alpha-5/beta-1. Briefly: Antagonist activity at alpha5beta1 integrin receptor (unknown origin) by cell-free ELISA. Type of experiment: protein-complex assay.
In experiment [15] the target is T5, Integrin alpha-IIb/beta-3 (Mus musculus, UniProt O54890+Q9QUM0).
T5 sequence (Q9QUM0 whole entry): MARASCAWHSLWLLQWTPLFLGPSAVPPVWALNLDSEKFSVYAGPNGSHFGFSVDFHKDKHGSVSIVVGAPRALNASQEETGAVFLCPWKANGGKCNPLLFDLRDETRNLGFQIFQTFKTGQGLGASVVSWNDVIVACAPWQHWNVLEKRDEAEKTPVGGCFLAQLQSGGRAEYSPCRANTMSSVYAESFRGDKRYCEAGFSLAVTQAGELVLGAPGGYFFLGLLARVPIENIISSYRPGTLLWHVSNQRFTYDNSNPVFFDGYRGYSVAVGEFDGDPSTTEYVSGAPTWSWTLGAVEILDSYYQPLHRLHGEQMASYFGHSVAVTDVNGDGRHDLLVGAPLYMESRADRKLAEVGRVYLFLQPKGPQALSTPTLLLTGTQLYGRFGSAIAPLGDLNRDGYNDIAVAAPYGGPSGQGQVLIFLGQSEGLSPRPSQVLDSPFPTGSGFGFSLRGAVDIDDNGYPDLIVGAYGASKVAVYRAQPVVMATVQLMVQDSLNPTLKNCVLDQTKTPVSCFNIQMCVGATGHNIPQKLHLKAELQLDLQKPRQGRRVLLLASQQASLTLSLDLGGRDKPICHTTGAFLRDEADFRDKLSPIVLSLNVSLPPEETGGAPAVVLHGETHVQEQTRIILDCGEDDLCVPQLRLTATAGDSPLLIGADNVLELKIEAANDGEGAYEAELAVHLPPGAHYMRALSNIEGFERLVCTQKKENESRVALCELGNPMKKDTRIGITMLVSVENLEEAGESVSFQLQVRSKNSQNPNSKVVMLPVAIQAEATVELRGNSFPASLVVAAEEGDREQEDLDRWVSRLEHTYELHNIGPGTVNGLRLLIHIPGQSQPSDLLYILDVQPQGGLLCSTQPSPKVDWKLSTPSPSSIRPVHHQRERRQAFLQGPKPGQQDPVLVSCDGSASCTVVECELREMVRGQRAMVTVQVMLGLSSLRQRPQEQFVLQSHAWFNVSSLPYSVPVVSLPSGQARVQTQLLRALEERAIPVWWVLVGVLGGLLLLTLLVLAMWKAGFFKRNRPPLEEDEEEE
T5 sequence (O54890 whole entry): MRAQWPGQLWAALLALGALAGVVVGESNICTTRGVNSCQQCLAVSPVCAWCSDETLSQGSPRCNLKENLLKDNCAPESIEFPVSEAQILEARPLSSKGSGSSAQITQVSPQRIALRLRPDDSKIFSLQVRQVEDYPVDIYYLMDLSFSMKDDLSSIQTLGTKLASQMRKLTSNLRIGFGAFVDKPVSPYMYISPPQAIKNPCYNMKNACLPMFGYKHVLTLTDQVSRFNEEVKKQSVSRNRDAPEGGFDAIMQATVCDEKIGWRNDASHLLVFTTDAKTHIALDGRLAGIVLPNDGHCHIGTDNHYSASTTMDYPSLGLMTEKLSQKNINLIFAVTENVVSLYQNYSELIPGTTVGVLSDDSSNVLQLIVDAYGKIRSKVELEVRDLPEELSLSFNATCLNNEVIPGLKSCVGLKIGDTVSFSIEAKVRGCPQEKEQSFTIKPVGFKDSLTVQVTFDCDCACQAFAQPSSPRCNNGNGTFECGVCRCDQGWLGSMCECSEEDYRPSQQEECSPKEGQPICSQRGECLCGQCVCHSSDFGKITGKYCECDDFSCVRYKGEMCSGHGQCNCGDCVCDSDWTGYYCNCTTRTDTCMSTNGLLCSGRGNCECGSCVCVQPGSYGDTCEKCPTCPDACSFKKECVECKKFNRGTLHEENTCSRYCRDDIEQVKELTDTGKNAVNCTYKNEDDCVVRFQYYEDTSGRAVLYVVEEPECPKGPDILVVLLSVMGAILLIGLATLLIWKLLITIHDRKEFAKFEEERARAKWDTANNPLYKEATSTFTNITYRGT
Briefly: Antagonist activity at mouse endothelial alpha2bbeta3 integrin receptor by cell adhesion assay. Type of experiment: protein-complex assay.

The target in experiment [16] is T6, Integrin alpha-V/beta-3 (Mus musculus, UniProt O54890+P43406).
T6 sequence (O54890 whole entry): T5 sequence (O54890 whole entry)
T6 sequence (P43406 whole entry): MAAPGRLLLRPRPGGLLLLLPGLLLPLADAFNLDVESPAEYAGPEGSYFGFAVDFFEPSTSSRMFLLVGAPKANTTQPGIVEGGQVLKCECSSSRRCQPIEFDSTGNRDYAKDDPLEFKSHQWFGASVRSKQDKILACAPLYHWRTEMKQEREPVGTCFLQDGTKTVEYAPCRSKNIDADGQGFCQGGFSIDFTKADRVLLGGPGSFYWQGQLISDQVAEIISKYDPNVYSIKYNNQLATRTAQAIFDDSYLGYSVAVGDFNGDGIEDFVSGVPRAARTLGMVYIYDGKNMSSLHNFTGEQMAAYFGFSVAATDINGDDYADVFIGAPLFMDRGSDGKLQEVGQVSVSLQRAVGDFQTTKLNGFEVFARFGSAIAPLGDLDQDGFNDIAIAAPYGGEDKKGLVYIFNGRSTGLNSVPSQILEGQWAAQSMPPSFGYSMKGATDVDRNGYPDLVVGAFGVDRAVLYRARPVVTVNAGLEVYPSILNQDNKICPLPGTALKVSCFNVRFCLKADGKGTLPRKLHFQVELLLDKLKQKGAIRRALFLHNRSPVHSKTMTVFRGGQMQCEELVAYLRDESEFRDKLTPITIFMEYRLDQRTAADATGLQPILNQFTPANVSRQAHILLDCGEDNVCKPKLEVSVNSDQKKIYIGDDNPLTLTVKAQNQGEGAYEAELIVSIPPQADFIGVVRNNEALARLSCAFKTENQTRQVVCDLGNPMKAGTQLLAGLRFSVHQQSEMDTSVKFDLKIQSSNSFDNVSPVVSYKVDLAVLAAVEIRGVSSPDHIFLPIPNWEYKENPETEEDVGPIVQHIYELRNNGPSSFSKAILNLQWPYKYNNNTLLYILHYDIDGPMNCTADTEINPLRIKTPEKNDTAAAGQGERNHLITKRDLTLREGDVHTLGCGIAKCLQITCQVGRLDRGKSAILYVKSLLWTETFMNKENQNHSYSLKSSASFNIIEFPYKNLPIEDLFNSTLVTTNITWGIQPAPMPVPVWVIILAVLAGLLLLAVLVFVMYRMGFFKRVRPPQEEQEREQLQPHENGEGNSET
As to the kind of experiment: Antagonist activity at mouse endothelial alphavbeta3 integrin receptor by cell adhesion assay. Type of experiment: protein-complex assay.

The structures appear in SMILES notation.

Chain of Integrin alpha-IIb/beta-3 (Homo sapiens, UniProt P05106+P08514) (P05106 27-788 limits assumed): as the sequence (P05106 27-788 limits assumed) above
Chain of Integrin alpha-IIb/beta-3 (Homo sapiens, UniProt P05106+P08514) (P08514 32-887 limits assumed): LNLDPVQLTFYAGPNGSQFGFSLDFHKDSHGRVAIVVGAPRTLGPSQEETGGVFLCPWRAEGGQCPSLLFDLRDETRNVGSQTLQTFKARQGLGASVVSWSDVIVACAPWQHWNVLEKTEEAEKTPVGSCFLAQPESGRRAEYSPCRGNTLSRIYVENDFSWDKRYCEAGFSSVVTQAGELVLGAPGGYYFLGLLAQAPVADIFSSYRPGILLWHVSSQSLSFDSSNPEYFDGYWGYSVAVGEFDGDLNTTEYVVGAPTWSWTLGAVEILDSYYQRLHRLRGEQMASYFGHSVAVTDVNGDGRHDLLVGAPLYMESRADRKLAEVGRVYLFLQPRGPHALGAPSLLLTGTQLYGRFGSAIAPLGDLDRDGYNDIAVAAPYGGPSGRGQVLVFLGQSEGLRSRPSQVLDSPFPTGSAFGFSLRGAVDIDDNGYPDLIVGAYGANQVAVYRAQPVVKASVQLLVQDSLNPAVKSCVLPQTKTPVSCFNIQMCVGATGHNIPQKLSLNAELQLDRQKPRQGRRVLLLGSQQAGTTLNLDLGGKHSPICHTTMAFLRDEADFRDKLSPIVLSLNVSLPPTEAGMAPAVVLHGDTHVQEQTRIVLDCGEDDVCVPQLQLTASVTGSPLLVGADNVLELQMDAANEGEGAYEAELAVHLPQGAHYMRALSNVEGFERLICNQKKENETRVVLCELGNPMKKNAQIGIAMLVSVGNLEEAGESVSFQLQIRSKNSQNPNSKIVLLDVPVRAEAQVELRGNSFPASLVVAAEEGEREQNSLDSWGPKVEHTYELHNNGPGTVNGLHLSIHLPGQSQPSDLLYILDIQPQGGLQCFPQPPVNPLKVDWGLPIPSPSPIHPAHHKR
Chain of Integrin alpha-IIb/beta-3 (Homo sapiens, UniProt P05106+P08514) (P08514 891-1039 limits assumed): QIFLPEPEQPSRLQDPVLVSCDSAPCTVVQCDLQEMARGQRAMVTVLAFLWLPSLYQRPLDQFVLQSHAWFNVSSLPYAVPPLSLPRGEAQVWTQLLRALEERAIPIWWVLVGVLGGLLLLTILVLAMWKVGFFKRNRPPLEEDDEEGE

As to `O=C(O)CC1CC(CNC(=O)CCCNc2ccccn2)=CCc2ccccc21` (stereo unspecified), the concentration for half-maximal inhibition (IC50) in [1] is 2 nM; in experiment [2] it was 1 nM.
Consider `N=C(N)NCc1cccc(-c2ccc(C(=O)NC[C@H](NS(=O)(=O)c3ccccc3)C(=O)O)s2)c1`, for which the IC50 in experiment [3] worked out at 0.3 nM; in [4] it was 0.033 nM.
On to `Cc1cc(C)c(S(=O)(=O)N[C@@H](CNC(=O)c2ccc(-c3cccc(CN=C(N)N)c3)s2)C(=O)O)c(C)c1`, for which the IC50 in [5] turned out to be 20 nM; in [3], 0.2 nM; in experiment [6], 60 nM; in experiment [4], 3.5 nM.
As to `O=C(O)C[C@H](NC(=O)CNC(=O)c1cc(O)cc(NC2=NCC(O)CN2)c1)c1cc(Cl)cc(Br)c1O` (stereo partly specified), the concentration for half-maximal inhibition (IC50) was 316 nM in [7]; 257 nM in experiment [3]; 11.7 nM in experiment [8]; 1.71 nM in [9]; 1.6 nM in [10]; 18.1 nM in experiment [11]. In experiment [12], this molecule yielded an IC50 of 10.4 nM.
Regarding `O=C(O)C[C@H](NC(=O)CNC(=O)c1cncc(N=C2NCC(O)CN2)c1)c1cc(Cl)cc(Br)c1O` (stereo partly specified), the half-maximal inhibitory concentration (IC50) in [7] came to 64 nM; in experiment [3] it was 380 nM; in [8] it was 1.13 nM; in experiment [9], 0.65 nM; in [11] it was 1.5 nM; in [12], 1.59 nM.
In the case of `N=C(N)NCCC[C@@H]1NC(=O)CNC(=O)[C@H](CC(=O)O)N[C@H](C(=O)O)C[S+]([O-])CC(=O)N[C@H](Cc2ccc(O)cc2)C1=O` (stereo partly specified), inhibition in experiment [3] was half-maximal at 1.5 nM (IC50).
In the case of `N=C(N)NCCCCC(=O)NCC(=O)NC(CC(=O)O)c1cccnc1` (stereo unspecified), the IC50 stood at 70000 nM in [5]; 317 nM in experiment [13]; 9 nM in experiment [3]; 23 nM in experiment [6]; 10 nM in [1]; 120 nM in experiment [4].
On to `N=C(N)NCCC[C@H](NC(=O)OCc1ccccc1)[C@H]1CC[C@H](C(=O)NC[C@H](NC(=O)OCc2ccccc2)C(=O)O)O1`, for which the values for the IC50 in experiment [3] and in experiment [1] were 67 nM and 52 nM, respectively.
Regarding `N=C(N)NCCCc1cn(CC(=O)N[C@@H](CC(=O)O)c2ccccc2)nn1`, the values for the IC50 in experiment [1] and in experiment [2] were 1.35 nM and 1.02 nM, respectively.
Regarding `O=C(N[C@@H](CNC(=O)c1ccc(CN(Cc2nc3ccccc3[nH]2)C(=O)NC2CCCCC2)cc1)C(=O)O)OCc1ccccc1`, the IC50 in experiment [1] worked out at 3.2 nM; in [2], 1.7 nM; in experiment [14], 421 nM.
`C=Cc1cnc(NC[C@@H]2C[C@]3(CC(C(=O)NC[C@H](NS(=O)(=O)c4c(C)cc(C)cc4C)C(=O)O)=NO3)CN2C(=O)OCCCC)[nH]1`: the IC50 in [1] stood at 87 nM; in experiment [14] it was 0.39 nM.
As to `Cc1cc(C)c(S(=O)(=O)N[C@@H](CNC(=O)c2ccc3c(cnn3CCCNc3ncc[nH]3)c2)C(=O)O)c(C)c1`, the IC50 in experiment [15] was 21 nM; in experiment [16], 2.3 nM.
As to `O=C(NC[C@H](NS(=O)(=O)c1c(Cl)cccc1Cl)C(=O)O)c1ccc2c(cnn2CCCNc2ncc[nH]2)c1`, the results for the 50% inhibitory concentration (IC50) in experiment [15] and in [16] were 12 nM and 8.5 nM, respectively.
